In the supplement of paper PMC13380429:
± gives the standard deviation of the averaged measurements.

How the values were obtained:
Details in all cases: 72 h
[1] = tested on: Vero E6; test: relative viability EC50 (midpoint between 100% and the lowest measured viability); higher = less toxic
[2] = tested on: HepG2; test: as above
[3] = tested on: Caco-2; test: as above
[4] = tested on: Calu-3; test: as above
[5] = tested on: U2OS; test: as above
[6] = tested on: Vero E6; test: cell viability relative to DMSO; higher = less toxic
[7] = tested on: HepG2; test: as above
[8] = tested on: Caco-2; test: as above
[9] = tested on: Calu-3; test: as above
[10] = tested on: U2OS; test: as above
[11] = tested on: Vero E6; test: drug sensitivity score (DSS) for viability; higher = more toxic; extreme values may be limits of the assay
[12] = tested on: HepG2; test: as above
[13] = tested on: Caco-2; test: as above
[14] = tested on: Calu-3; test: as above
[15] = tested on: U2OS; test: as above

SMILES	relative viability EC50 [1] [µM]	relative viability EC50 [2] [µM]	relative viability EC50 [3] [µM]	relative viability EC50 [4] [µM]	relative viability EC50 [5] [µM]	cell viability ([6]; 1 nM) [%]	cell viability ([6]; 10 nM) [%]	cell viability ([6]; 100 nM) [%]	cell viability ([6]; 1000 nM) [%]	cell viability ([6]; 10000 nM) [%]	cell viability ([7]; 1 nM) [%]	cell viability ([7]; 10 nM) [%]	cell viability ([7]; 100 nM) [%]	cell viability ([7]; 1000 nM) [%]	cell viability ([7]; 10000 nM) [%]	cell viability ([8]; 1 nM) [%]	cell viability ([8]; 10 nM) [%]	cell viability ([8]; 100 nM) [%]	cell viability ([8]; 1000 nM) [%]	cell viability ([8]; 10000 nM) [%]	cell viability ([9]; 1 nM) [%]	cell viability ([9]; 10 nM) [%]	cell viability ([9]; 100 nM) [%]	cell viability ([9]; 1000 nM) [%]	cell viability ([9]; 10000 nM) [%]	cell viability ([10]; 1 nM) [%]	cell viability ([10]; 10 nM) [%]	cell viability ([10]; 100 nM) [%]	cell viability ([10]; 1000 nM) [%]	cell viability ([10]; 10000 nM) [%]	drug sensitivity score [11]	drug sensitivity score [12]	drug sensitivity score [13]	drug sensitivity score [14]	drug sensitivity score [15]
COc1cc2c(CCNC(C)=O)c[nH]c2cc1Cl [6-chloromelatonin]	> 10	> 10	> 10	> 10	> 10	97.8	93.8	96.2	89.9	102	107	97.2	94.7	90.5	98.9	96	98.3	92.7	98.1	91	99.5	96.5	98.9	105	98.3	100	101	101	101	99.3	0	0	0	0	0
C#C[C@]1(O)CC[C@H]2[C@@H]3CCC4=CC(=O)CC[C@@H]4[C@H]3CC[C@@]21C [Norethindrone (Norethisterone)]	> 10	> 10	> 10	> 10	–	98.4	97.4	94.6	93.6	109	103	89.5	94.1	100	114	94	103	97	101	116	103	105	93.9	110	99.9	–	–	–	–	–	0	0	0	0	–
CN(C)c1ccc(/C=C2\C(=O)Nc3ccccc32)cc1 [SU4312]	> 10	–	> 10	> 10	> 10	106	99.6	103	103	89.3	96	92.4	95.1	69.5	89.7	96.3	106	97.5	90.6	79.6	97.7	94.3	96.4	88.4	91.8	99.3	105	94.8	96.9	90	0	2	1.2	0	0
C[C@]12N[C@H](Cc3ccccc31)c1ccccc12 [dizocilpine-(-)]	> 10	–	> 10	> 10	> 10	95.8	97.2	101	93	97	99.4 ± 0.28	97.7 ± 4.1	102 ± 9.9	95 ± 4.2	73.8 ± 28	98.7 ± 0.42	94.5 ± 1.2	97.7 ± 1.8	102 ± 6.2	99.5 ± 5	97.8 ± 11	96.6 ± 3	101 ± 7.7	96.8 ± 6.1	98.5 ± 11	98.1 ± 5.1	104 ± 3.2	97.4 ± 1.7	100.7 ± 0.92	95.4 ± 1.4	0	1.85 ± 2.6	0	0	0
CCC1(C2=NCCN2)Cc2ccccc2O1 (stereo unspecified) [efaroxan]	> 10	–	> 10	> 10	> 10	102	101	101	98.4	106	–	–	–	–	–	102	96.7	97.1	90.4	98.7	109	93.4	109	101	110	107	107	101	95.8	101	0	–	0	0	0
C[C@H](N[C@@H](CCc1ccccc1)C(=O)O)C(=O)N1CCC[C@H]1C(=O)O [enalaprilat]	> 10	–	> 10	> 10	> 10	97.5	94.5	99.1	101	107	–	–	–	–	–	92.8	104	90.1	97.5	94.7	101	101	105	89	97.2	96.5	97.9	94.9	96.7	104	0	–	0	0.2	0
CCOC(=O)c1ccc(OC(=O)CCCCCNC(=N)N)cc1 [gabexate]	> 10	> 10	> 10	> 10	–	101	104	98	98.4	100	97.1	115	96.9	95.6	103	94.2	95.6	99.2	95.2	89.4	88.1	95.9	84.8	86.9	87.1	–	–	–	–	–	0	0	0	1.4	–
Cc1ccnc2c1NC(=O)c1cccnc1N2C1CC1 [nevirapine]	> 10	–	> 10	> 10	> 10	94.3	107	96.5	104	108	–	–	–	–	–	87.3	86.8	101	97	100	104	90.6	109	96.8	87.8	97.2	101	101	101	98.9	0	–	0	0.2	0
CC(C)(C)NCC(O)c1ccccc1Cl (stereo unspecified) [tulobuterol]	> 10	–	> 10	> 10	> 10	96.9	98.2	99.7	96.2	87	–	–	–	–	–	93.7	89.8	88.1	79.8	95.6	94.6	91.1	99.4	111	88.4	99.7	95.5	102	101	98.6	0.3	–	0	0	0
